Laboratory results from patent US5716627A, “Skin care compositions containing fatty acid amides, azoles, and retinol or retinyl ester” (Elizabeth Arden Co., Division of Conopco, Inc., priority 1996, dated 1998).
“Also recorded” adds a separate entry of the source. Read-outs that look alike come from different tables or passages of the source.

Columns and labels:
Human keratinocytes = assay: 3H-thymidine incorporation by cultured keratinocytes (keratinocyte proliferation); format: cell-based; details: for activation at 0.0025 µM: 2.5×10^-9 M RA
Method: Human keratinocytes, isolated from neonatal foreskin by trypsin treatment were grown in Dulbecco Modification Eagle (DME) Hams F12 (1:1) medium/10% fetal calf serum in the presence of irradiated 3T3 mouse fibroblasts for establishing dividing keratinocyte colonies. Cells were grown under the above condition until their second passage and kept frozen for future use. […] On day 7, when the cells were 80-90% confluent, they were trypsinized and plated in the serum-free medium for the various experiments.
The incorporation of ^3 H-thymidine by cultured keratinocytes was used as an assay of keratinocyte proliferation. Thymidine is one of four deoxynucleosides which are the monomeric units of DNA, the universal library of genetic information in the animal kingdom. Prior to cell division of a somatic cell such as a keratinocyte, the complete genome of the cell undergoing cell division is replicated. This involves large scale DNA synthesis by the cell and enables both daughter cells to receive identical copies of the genetic material. When ^3 H-thymidine is included in the culture media of keratinocytes which are synthesizing DNA in preparation for cell division then the labelled nucleoside is incorporated into the newly synthesized DNA. The extent of incorporation of ^3 H-thymidine into a population of cells is proportional to the rate of DNA synthesis by this population of cells and therefore an indication of their cellular proliferation.
Keratinocytes (that were cultured as described above) were plated in 24 well plates at a density of 40,000 cells per well in 1 ml media. After incubation for four days or until the cells were 60-70% confluent, the media was changed. Test compounds were added (in triplicate) to the wells 24 hours after the media change, and four hours later 1 μCi ^3 H-Thymidine in 50 μl media was added per well. Cells were incubated for a further 24 hours. Media was removed from the cells, 10% ice cold trichloroacetic acid (TCA) added and plates were incubated on ice for 30 minutes. Cells were washed five times with 5% TCA and allowed to dissolve in 500 μl 0.1M NaOH for at least one hour (usually overnight). The preparations were neutralized with 0.1M HCl; 50 μl of the cell preparation was used to determine total protein content. Disintegrations per minute (DPM) from ^3 H labelling of DNA was determined by liquid scintillation counting of 900 μl of the cell preparation. Thymidine incorporation results were expressed as DPM/μg protein.

TGase I = assay: Transglutaminase (TGase I) ELISA in cultured keratinocytes, normalized to DNA content (keratinocyte differentiation); format: cell-based, human; details: for Mean TGase/DNA X 10^-4 ± S.D.: n = 3; for mean TGase/DNA × 10^4 ± s.d: Table 3B
Method: Human keratinocytes, isolated from neonatal foreskin by trypsin treatment were grown in Dulbecco Modification Eagle (DME) Hams F12 (1:1) medium/10% fetal calf serum in the presence of irradiated 3T3 mouse fibroblasts for establishing dividing keratinocyte colonies. Cells were grown under the above condition until their second passage and kept frozen for future use. Frozen second passage keratinocytes were thawed and plated into the above medium and grown for five days before they were switched to a serum-free MCDB 153-based medium keratinocyte growth medium (KGM) from Clonetics Corporation, San Diego, Calif., containing 0.15 mM Ca, or keratinocyte serum-free media (KSFM) from GIBCO containing 0.09 mM Ca). On day 7, when the cells were 80-90% confluent, they were trypsinized and plated in the serum-free medium for the various experiments.
During the process of terminal differentiation in the epidermis, a 15 nm thick layer of protein, known as the cornified envelope (CE) is formed on the inner surface of the cell periphery. The CE is composed of numerous distinct proteins which have been cross-linked together by the formation of N^ε -(γ-glutamyl) lysine isodipeptide bonds catalyzed by the action of at least two different transglutaminases (TGases) expressed in the epidermis. TGase I is expressed in abundance in the differentiated layers of the epidermis, especially the granular layer, but is absent in the undifferentiated basal epidermis. Thus TGase I is a useful marker of epidermal keratinocyte differentiation with high TGase I levels indicating a more differentiated state. An ELISA based TGase I assay, using a TGase I antibody, was used to assess the state of differentiation of the cultured keratinocytes in the examples that follow.
Keratinocytes (cultured as described above) were plated in 96 well plates at a density of 3,000 cells per well in 200 μl media. After incubation for four days the media was changed to media containing test compounds (six replicates per test). The cells were cultured for a further 72 hours after which time the media was aspirated and the plates stored at -70° C. Plates were removed from the freezer, and the cells washed with PBS. 100 μl sterile water was added and the cells were freeze fractured by freezing at -70° C. then thawing. The cells were incubated for one hour at room temperature (R/T) with PBS/3% BSA (wash buffer, bovine serum albumin), then rinsed with a fresh aliquot of wash buffer. Cells were incubated with 50 μl of primary antibodies monoclonal anti-human transglutaminase (IgG) obtained from Amersham (mouse) diluted 1:300 in wash buffer for one hour, 37° C. then rinsed two times with wash buffer. Cells were then incubated with 50 μl of secondary antibody (Feb fragment, peroxidase conjugated anti-mouse IgG obtained from Amersham) diluted 1:200 in wash buffer for one hour at 37° C., then rinsed two times with wash buffer. Cells were incubated with substrate solution (4 mg o-phenylene diamine and 3.3 μl 30% H2 O2 in 10 ml 0.1M citrate buffer pH 5.0) for five minutes, R/T, in darkness (under aluminum foil). The reaction was stopped by the addition of 50 μl 4N H2 SO4. The absorbance of samples was read at 492 nm in the plate reader. Out of the six replicates, four were treated with both antibodies, two were treated only with the secondary antibody (i.e., to determine background binding of enzyme conjugated Ab). TGase levels were determined by subtracting background from the readings from each treatment and determining mean ±s.d. for the replicates exposed to both Ab.
The level of TGase-1 detected after treatment of the cells could be influenced by cell number, i.e., the greater the number of cells the greater the level of TGase-1 detected. The level of TGase-1 was normalized to DNA content of the cells in the same well thus eliminating variation due to differences in cell number. […]

[1] = Examples 1-4, overall conclusion

CC1=C(/C=C/C(C)=C/C=C/C(C)=C/C(=O)O)C(C)(C)CCC1 [RA, retinoic acid]
effect on keratinocyte proliferation (in words) (Human keratinocytes; Example 1, 2.5×10^-7 M, 2.5×10^-8 and 2.5×10^-9 M, vs ethanol control and retinol): significantly increased keratinocyte proliferation over both the ethanol control and each of the 2.5×10^-7 M, 2.5×10^-8 M and 2.5×10^-9 M retinol treatments; also recorded: dose dependant manner
effect on keratinocyte proliferation (in words) (Human keratinocytes; [1]): increased keratinocyte proliferation
activity at 0.25 µM (Human keratinocytes; Homo sapiens, Keratinocyte, 24 h, Table 1A, 2.5 × 10^-7 M, 24 hours, read-out: Thymidine incorporation (% control)): 118%
activity at 0.025 µM (Human keratinocytes; Homo sapiens, Keratinocyte, 24 h, Table 1A, 2.5 × 10^-8 M, 24 hours, read-out: Thymidine incorporation (% control)): 128%
activity at 0.0025 µM (Human keratinocytes; Homo sapiens, Keratinocyte, 24 h, Table 1A, 2.5 × 10^-9 M, 24 hours, read-out: Thymidine incorporation (% control)): 122%
activity at 0.0025 µM (Human keratinocytes; Homo sapiens, Keratinocyte, 24 h, Table 2A, 2.5 × 10^-9 M RA or ROH, with 10^-8 M LADEA and/or 10^-9 M Bifonazole where named, 24 hours, read-out: Thymidine incorporation (% control)): 127%
activity at 0.25 µM (Human keratinocytes; Homo sapiens, Keratinocyte, 24 h, Table 3A, RA at 2.5 × 10^7 M [sic], read-out: Thymidine incorporation (% control)): 130%
activation at 0.0025 µM (Human keratinocytes; Homo sapiens, Keratinocyte, read-out: increase in keratinocyte thymidine incorporation / proliferation over the ethanol control, Example 2, or 2.5×10^-9 M retinol+10^-8 M linoleamide-DEA+10^-9 M bifonazole): 27%
activation at 0.25 µM (Human keratinocytes; Homo sapiens, Keratinocyte, read-out: increase in keratinocyte thymidine incorporation / proliferation over the ethanol control, Example 3, 2.5×10^-7 M RA, or 2.5×10^-8 M retinol+10^-8 M linoleamide-DEA+10^-9 M climbazole): 30%
activation at 0.0025 µM (Human keratinocytes; Homo sapiens, Keratinocyte, read-out: increase in keratinocyte thymidine incorporation / proliferation over the ethanol control, Example 4, or 2.5×10^-9 M retinol+10^-8 M linoleamide-MEA+10^-8 M clotrimazole): 28%
mean Thymidine incorp./μg protein ± s.d (Human keratinocytes; Table 1A, 2.5 × 10^-7 M, 24 hours, n = 3): 2475 ± 116 DPM/μg protein
mean Thymidine incorp./μg protein ± s.d (Human keratinocytes; Table 1A, 2.5 × 10^-8 M, 24 hours, n = 3): 2686 ± 72 DPM/μg protein
mean Thymidine incorp./μg protein ± s.d (Human keratinocytes; Table 1A, 2.5 × 10^-9 M, 24 hours, n = 3): 2556 ± 80 DPM/μg protein
mean Thymidine incorp. μg protein ± s.d (Human keratinocytes; Table 2A, 2.5 × 10^-9 M RA or ROH, with 10^-8 M LADEA and/or 10^-9 M Bifonazole where named, 24 hours, n = 3): 5569 ± 248 DPM/μg protein
mean Thymidine incorp/μg protein ± s.d (Human keratinocytes; Table 3A, RA at 2.5 × 10^7 M [sic], n = 3): 4845 ± 95 DPM/μg protein
effect on transglutaminase level / keratinocyte differentiation (in words) (TGase I; Example 1, 2.5×10^-7 M, 2.5×10^-8 M and 2.5×10^-9 M): decreased keratinocyte differentiation over both the ethanol control and each of the retinol treatments; also recorded: dose dependent
effect on keratinocyte TG1 level / differentiation (in words) (TGase I; Example 2, 2.5×10^-8 M RA or retinol, 10^-8 M LAMEA, 10^-8 M bifonazole, 72 hour): very effective at repressing keratinocyte TG1 levels
effect on keratinocyte TG1 level / differentiation (in words) (TGase I; Example 3, 2.5×10^-7 M RA, 2.5×10^-9 M retinol with 10^-8 M LADEA and/or climbazole, 72 hour): very effective at repressing keratinocyte TG1 levels
effect on keratinocyte differentiation (in words) (TGase I; [1]): decreased keratinocyte differentiation
TGase/DNA (% Control) (TGase I; Table 1B, 2.5 × 10^-7 M, 72 hours, 0.25 µM): 7%
Mean TGase/DNA X 10^-4 ± S.D. (TGase I; Table 1B, 2.5 × 10^-7 M, 72 hours): 0.16 ± 0.11 X 10^-4
TGase/DNA (% Control) (TGase I; Table 1B, 2.5 × 10^-8 M, 72 hours, 0.025 µM): 55%
Mean TGase/DNA X 10^-4 ± S.D. (TGase I; Table 1B, 2.5 × 10^-8 M, 72 hours): 1.34 ± 0.40 X 10^-4
TGase/DNA (% Control) (TGase I; Table 1B, 2.5 × 10^-9 M, 72 hours, 0.0025 µM): 77%
Mean TGase/DNA X 10^-4 ± S.D. (TGase I; Table 1B, 2.5 × 10^-9 M, 72 hours): 1.87 ± 0.49 X 10^-4
TGase/DNA (% Control) (TGase I; Table 2B and Example 2B text, 2.5×10^-8 M RA or retinol, 10^-8 M LAMEA, 10^-8 M bifonazole where named, 72 hour): 13%
mean TGase/DNA × 10^-4 ± s.d (TGase I; Table 2B, 2.5 × 10^8 M [sic] RA or ROH, 10^8 M LA-MEA, 10^8 M Bifonazole where named, 72 hour, n = 6): 0.017 ± 0.010 × 10^-4
TGase/DNA (% Control) (TGase I; Table 3B and Example 3B, 2.5×10^-9 M RA or ROH, with 10^-8 M LADEA and/or 10^-8 M climbazole where named, 72 hour): 55%
TGase/DNA (% Control) (TGase I; Table 3B and Example 3B, RA at 2.5×10^-7 M (table: 2.5 × 10^7 M), 72 hour, 0.25 µM): 29%
mean TGase/DNA × 10^4 ± s.d (TGase I; 2.5 × 10^9 M [sic] RA or ROH, with 10^8 M LA-DEA and/or 10^8 M Climbazole where named, 72 hour, n = 6): 0.84 ± 0.59 × 10^4
mean TGase/DNA × 10^4 ± s.d (TGase I; RA at 2.5 × 10^7 M [sic], 72 hour, n = 6): 0.44 ± 0.71 × 10^4
